Measurements: ChEMBL document CHEMBL1141927, “Quorum sensing in Vibrio harveyi: probing the specificity of the LuxP binding site” (Bioorg Med Chem Lett, 2005)

Assay: Effective concentration to induce a quorum signal in Vibrio harveyi(by binding Lux P protein)
Type: functional

Row | Compound | EC50
1 | O=C(CO)[C@@H](O)[C@H](O)CO | 560 µM
2 | CC(=O)C(=O)CCO | 27 µM
3 | CC(=O)C(=O)[C@H](O)[C@H](O)CO | 429 µM
4 | CC(=O)C(=O)[C@H](O)CO | 84 µM
5 | O=C(CO)[C@H](O)[C@H](O)CO | 108 µM
6 | CC(=O)C(=O)[C@@H](O)CO | 0.044 µM
7 | O=C1O[C@H]([C@@H](O)CO)C(O)=C1O [ASCORBIC ACID] | 737 µM
